The source of these data is ChEMBL document CHEMBL4425188, “Synthesis and immunostimulatory activity of substituted TLR7 agonists” (Bioorg Med Chem Lett, 2016).

SMILES strings stand for the structures. Active and inactive are the calls of the source. The rule behind the calls is not given here.

Assay [1] concerns the target T1, Toll-like receptor 7 (Homo sapiens) (UniProt Q9NYK1).
T1 sequence (whole entry): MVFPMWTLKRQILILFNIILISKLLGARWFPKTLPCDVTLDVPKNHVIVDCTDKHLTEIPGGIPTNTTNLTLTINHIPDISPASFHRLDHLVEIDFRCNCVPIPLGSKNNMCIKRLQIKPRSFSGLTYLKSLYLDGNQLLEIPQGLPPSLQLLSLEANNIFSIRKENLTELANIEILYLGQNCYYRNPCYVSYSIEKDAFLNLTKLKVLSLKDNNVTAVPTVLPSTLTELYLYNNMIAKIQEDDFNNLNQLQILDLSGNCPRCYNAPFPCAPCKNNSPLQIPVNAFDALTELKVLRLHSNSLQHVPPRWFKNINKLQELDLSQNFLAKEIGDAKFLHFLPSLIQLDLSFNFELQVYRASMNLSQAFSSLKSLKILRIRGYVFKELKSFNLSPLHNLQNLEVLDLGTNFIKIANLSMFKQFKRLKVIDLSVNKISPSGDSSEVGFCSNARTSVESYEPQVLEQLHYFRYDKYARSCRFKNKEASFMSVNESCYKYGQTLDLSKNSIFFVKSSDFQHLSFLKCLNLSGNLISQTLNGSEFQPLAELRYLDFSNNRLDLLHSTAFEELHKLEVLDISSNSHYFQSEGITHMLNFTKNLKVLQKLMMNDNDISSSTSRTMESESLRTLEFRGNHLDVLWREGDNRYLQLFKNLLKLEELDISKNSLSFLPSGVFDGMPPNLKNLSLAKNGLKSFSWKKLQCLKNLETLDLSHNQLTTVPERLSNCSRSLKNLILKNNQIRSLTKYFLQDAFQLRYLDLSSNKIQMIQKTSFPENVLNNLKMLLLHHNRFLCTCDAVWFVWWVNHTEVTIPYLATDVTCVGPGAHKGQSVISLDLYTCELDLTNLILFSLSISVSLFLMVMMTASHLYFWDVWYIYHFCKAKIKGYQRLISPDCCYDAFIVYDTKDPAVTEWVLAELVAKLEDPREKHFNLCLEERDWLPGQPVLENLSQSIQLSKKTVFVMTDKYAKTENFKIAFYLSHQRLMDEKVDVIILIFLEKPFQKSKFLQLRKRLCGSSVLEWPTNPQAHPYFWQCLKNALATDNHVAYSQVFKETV
As to the kind of experiment: Agonist activity at human TLR7 expressed in HEK293 cells at <= 50 ng/ml by QUANTI-blue SEAP reporter gene assay. It counts as cell-based.

Assay [2] has as its target T1, Toll-like receptor 7 (Homo sapiens). As to the kind of experiment: Agonist activity at human TLR7 expressed in HEK293 cells at 1 ng/ml by QUANTI-blue SEAP reporter gene assay. It counts as cell-based.
Assay [3] has as its target T2, Toll-like receptor 8 (Homo sapiens) (UniProt Q9NR97).
T2 sequence (whole entry): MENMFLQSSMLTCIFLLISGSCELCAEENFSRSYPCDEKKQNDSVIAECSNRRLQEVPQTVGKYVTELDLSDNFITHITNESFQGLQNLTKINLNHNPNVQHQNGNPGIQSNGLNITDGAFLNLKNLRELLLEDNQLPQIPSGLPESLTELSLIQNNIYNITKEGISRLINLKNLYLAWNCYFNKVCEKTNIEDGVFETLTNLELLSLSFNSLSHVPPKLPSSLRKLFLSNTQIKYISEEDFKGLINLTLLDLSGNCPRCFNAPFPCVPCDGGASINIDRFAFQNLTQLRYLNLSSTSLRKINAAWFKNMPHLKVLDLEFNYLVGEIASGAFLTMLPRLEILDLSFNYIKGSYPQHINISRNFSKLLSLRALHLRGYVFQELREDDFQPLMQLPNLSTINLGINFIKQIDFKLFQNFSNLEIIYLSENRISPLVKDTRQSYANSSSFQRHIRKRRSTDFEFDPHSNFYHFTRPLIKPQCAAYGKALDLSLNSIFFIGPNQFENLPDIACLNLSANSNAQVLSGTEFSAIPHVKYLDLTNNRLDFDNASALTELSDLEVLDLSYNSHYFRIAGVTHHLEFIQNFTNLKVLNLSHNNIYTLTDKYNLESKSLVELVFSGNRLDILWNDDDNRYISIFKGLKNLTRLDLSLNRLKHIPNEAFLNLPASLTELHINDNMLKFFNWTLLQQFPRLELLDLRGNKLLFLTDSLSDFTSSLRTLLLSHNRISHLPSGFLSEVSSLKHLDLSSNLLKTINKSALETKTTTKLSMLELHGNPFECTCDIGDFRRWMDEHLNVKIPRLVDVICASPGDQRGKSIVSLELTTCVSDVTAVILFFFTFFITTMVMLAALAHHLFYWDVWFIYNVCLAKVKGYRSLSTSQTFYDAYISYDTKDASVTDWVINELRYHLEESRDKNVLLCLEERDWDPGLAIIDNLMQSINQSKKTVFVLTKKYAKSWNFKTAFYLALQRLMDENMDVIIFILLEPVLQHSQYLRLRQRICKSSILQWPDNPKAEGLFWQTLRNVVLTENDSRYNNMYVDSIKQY
Nature of the assay: Agonist activity at human TLR8 expressed in HEK293 cells at 5 to 1000 ng/ml by QUANTI-blue SEAP reporter gene assay. It counts as cell-based.

For assay [4], the target named is T3, Toll-like receptor 9 (Homo sapiens) (UniProt Q9NR96).
T3 sequence (whole entry): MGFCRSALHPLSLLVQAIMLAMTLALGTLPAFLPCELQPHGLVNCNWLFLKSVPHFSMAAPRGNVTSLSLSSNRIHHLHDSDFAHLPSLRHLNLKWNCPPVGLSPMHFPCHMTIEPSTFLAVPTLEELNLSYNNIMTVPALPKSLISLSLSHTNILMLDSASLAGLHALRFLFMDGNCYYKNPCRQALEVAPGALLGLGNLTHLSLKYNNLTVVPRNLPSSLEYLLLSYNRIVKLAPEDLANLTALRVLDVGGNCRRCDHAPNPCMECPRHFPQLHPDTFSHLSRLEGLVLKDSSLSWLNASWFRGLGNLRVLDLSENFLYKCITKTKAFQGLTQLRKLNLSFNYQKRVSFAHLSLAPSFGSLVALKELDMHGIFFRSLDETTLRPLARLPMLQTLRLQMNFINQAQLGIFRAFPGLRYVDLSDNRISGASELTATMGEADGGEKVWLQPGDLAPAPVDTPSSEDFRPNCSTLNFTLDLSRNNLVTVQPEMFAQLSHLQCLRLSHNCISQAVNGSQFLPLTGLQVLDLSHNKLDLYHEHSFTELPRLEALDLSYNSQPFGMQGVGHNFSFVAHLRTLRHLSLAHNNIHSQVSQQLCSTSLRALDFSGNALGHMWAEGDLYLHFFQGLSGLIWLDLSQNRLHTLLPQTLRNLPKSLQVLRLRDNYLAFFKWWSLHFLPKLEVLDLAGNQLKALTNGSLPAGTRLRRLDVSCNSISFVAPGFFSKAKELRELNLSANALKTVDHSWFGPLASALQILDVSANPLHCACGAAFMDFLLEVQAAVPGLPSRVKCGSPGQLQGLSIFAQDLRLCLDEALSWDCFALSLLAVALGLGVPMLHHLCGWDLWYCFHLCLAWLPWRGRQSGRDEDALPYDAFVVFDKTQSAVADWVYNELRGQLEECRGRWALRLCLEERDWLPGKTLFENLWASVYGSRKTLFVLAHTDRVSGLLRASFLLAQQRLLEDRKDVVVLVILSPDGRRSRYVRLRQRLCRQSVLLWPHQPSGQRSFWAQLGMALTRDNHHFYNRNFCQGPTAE
As to the kind of experiment: Agonist activity at human TLR9 expressed in HEK293 cells at 5 to 1000 ng/ml by QUANTI-blue SEAP reporter gene assay. It counts as cell-based.

For another assay, the system named is T-cell. Nature of the assay: Immunostimulatory activity in CFSE-labeled human T cells assessed as TLR7 agonist-induced cell proliferation at 2 to 200 nM after 6 days by FACS analysis. It counts as functional, cell-based.
The next assay deals with B cell. As to the kind of experiment: Immunostimulatory activity in CFSE-labeled human B cells assessed as TLR7 agonist-induced cell proliferation after 6 days by FACS analysis. It counts as functional, cell-based. The following applies: 144 h.
The species entered for another assay is Homo sapiens. As to the kind of experiment: Immunostimulatory activity in CFSE-labeled human NK cells assessed as TLR7 agonist-induced cell proliferation at 2 to 200 nM after 6 days by FACS analysis. Format: functional.
Another assay relates to HEK293. Nature of the assay: Induction of SEAP reporter gene expression in TLR-deficient HEK293 cells at 5 to 1000 ng/ml. Format: functional, cell-based. The following applies: Homo sapiens.
Assay [5] deals with T1, Toll-like receptor 7 (Homo sapiens). As to the kind of experiment: Agonist activity at human TLR7 expressed in HEK293 cells at <= 500 ng/ml by QUANTI-blue SEAP reporter gene assay. Format: cell-based.

Consider `CCCCOc1nc(N)c2nc(O)n(Cc3ccc(C(=O)NCCCCN)cc3)c2n1`, for which the result in assay [1] was Active. In addition, the outcome (in [2]; in [3]; in assay [4]; in the assay on T-cell; in the assay listed under Homo sapiens; in the assay on HEK293) was inactive. In addition, the EC50 with B cell was found to be 0.0474 µM.

As to `CCCCOc1nc(N)c2nc(O)n(Cc3ccc(C(=O)NCCC(=O)N4Cc5ccccc5C#Cc5ccccc54)cc3)c2n1`, the outcome in [5] was Active. Further, the result (in [3]; in assay [4]; in the assay on HEK293) was inactive.

Regarding `CCCCOc1nc(N)c2nc(O)n(Cc3ccc(C(=O)NCCNC(=O)C4CCC(CN5C(=O)C=CC5=O)CC4)cc3)c2n1` (centres undefined), the outcome in assay [5] was Active. The result (in assay [3]; in [4]; in the assay on HEK293) was inactive.

Turning to `CCCCOc1nc(N)c2nc(NC)n(Cc3ccccc3)c2n1`, the outcome in [5] was Active. Besides, the outcome (in [3]; in assay [4]; with T-cell; in the assay filed under Homo sapiens; with HEK293) was inactive. Further, the concentration giving a half-maximal response (EC50) in the assay with B cell was determined as 0.969 µM.

As for `CCCCOc1nc(N)c2nc(SCC(=O)O)n(Cc3ccccc3)c2n1`, the result (in [2]; in assay [3]; in assay [4]; in the assay on HEK293) was inactive.

Consider `CCCCOc1nc(N)c2nc(SCc3ccc(C#N)cc3)n(Cc3ccccc3)c2n1`, for which the outcome (in [2]; in assay [3]; in assay [4]; with HEK293) was inactive.

In the case of `CCCCOc1nc(N)c2nc(O)n(Cc3ccc(C(=O)NCCOCCOCCNC(=O)OC(C)(C)C)cc3)c2n1`, the outcome in assay [5] was Active. Moreover, the outcome (in [3]; in assay [4]; in the assay with T-cell; in the assay listed under Homo sapiens; in the assay with HEK293) was inactive. Further, the concentration giving a half-maximal response (EC50) in the assay with B cell is 0.0464 µM.

On to `CCCCOc1nc(N)c2nc(SCc3ccc(Br)cc3)n(Cc3ccccc3)c2n1`, for which the result (in assay [2]; in [3]; in [4]; in the assay with HEK293) was inactive.

For `CCCCOc1nc(N)c2nc(O)n(Cc3ccc(C(=O)NCc4ccc(OC)cc4)cc3)c2n1`, the outcome in assay [5] was Active. The result (in [3]; in assay [4]; in the assay on T-cell; in the assay listed under Homo sapiens; in the assay on HEK293) was inactive. The EC50 in the assay on B cell is 0.0605 µM.
